Experimental data as given in publication doi:10.1101/171595v1 (biorxiv, 2017).

System: HpaM
Conditions: read-out: apparent Km; 50 mM PBS pH 7.0, 0.2 mM FAD, 5HPA as co-substrate, 25°C

For `NC(=O)C1=CN([C@@H]2O[C@H](COP(=O)(O)OP(=O)(O)OC[C@H]3O[C@@H](n4cnc5c(N)ncnc54)[C@H](O)[C@@H]3O)[C@@H](O)[C@H]2O)C=CC1` [NADH], the Km was 37.8 ± 3.4 µM.
